The results in this text go back to ChEMBL document CHEMBL4334539, “Discovery of VU6015929: A Selective Discoidin Domain Receptor 1/2 (DDR1/2) Inhibitor to Explore the Role of DDR1 in Antifibrotic Therapy” (ACS Med Chem Lett, 2020).

Molecules are shown by their SMILES.

The target in data set [1] is T1, Discoidin domain-containing receptor 2 (Homo sapiens, UniProt Q16832).
T1 sequence (Q16832 whole entry): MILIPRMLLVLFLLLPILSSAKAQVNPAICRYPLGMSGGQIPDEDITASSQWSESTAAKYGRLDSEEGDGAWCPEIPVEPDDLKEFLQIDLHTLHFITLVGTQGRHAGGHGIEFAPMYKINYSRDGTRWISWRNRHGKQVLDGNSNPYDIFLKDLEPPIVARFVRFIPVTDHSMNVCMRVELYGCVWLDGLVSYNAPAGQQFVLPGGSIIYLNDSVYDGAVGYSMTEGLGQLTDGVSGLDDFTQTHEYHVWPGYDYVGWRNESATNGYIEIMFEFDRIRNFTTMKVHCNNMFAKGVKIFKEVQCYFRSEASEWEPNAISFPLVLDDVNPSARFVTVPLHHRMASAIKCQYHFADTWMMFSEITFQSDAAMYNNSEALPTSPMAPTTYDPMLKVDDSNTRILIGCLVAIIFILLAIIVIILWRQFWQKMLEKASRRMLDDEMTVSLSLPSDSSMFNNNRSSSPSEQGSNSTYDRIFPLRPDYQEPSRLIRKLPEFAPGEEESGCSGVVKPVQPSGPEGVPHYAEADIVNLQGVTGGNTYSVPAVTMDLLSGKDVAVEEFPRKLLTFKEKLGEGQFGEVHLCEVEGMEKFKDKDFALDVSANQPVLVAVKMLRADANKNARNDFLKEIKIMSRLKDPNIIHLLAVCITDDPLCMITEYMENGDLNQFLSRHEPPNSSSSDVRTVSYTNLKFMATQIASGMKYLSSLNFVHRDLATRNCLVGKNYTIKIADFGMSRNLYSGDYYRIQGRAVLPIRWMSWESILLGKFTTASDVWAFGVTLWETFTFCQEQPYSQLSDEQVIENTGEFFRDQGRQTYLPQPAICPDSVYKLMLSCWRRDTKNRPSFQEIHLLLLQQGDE
The data set can be described thus: Inhibition of kinase tracer 178 binding to recombinant human His-tagged DDR2 expressed in baculovirus infected Sf9 cells incubated for 1 hr by TR-FRET based LanthaScreen Eu kinase binding assay. (In general: In TR-FRET formats the signal depends on donor and acceptor labels being close together.)

Data set [2] can be described thus: Tmax in Sprague-Dawley rat at 3 mg/kg, po measured upto 24 hrs by LC/MS/MS analysis. Format: ADME, organism-based. The settings on record: in vivo.
The nature of data set [3]: Clearance in Sprague-Dawley rat at 0.5 mg/kg, iv or 3 mg/kg, po measured upto 24 hrs by LC/MS/MS analysis. Format: ADME, organism-based. The note with it: in vivo.
Data set [4] is described as follows: Metabolic stability in rat liver microsomes assessed as […] at 1 uM incubated for 5 mins followed by NADPH addition and measured upto 45 mins by LC/MS/MS analysis. Format: ADME, Microsome. The settings on record: read-out: CLH. In general terms: Liver microsomes are vesicles of endoplasmic reticulum, rich in cytochrome P450 enzymes.
Data set [5] can be described thus: Volume of distribution at steady state in Sprague-Dawley rat at 0.5 mg/kg, iv or 3 mg/kg, po measured upto 24 hrs by LC/MS/MS analysis. It is filed as ADME, organism-based. The note with it: in vivo, read-out: Vdss.
Data set [6] is described as follows: Half life in Sprague-Dawley rat at 0.5 mg/kg, iv or 3 mg/kg, po measured upto 24 hrs by LC/MS/MS analysis. Format: ADME, organism-based. The settings on record: in vivo.
Data set [7] in a line: Cytotoxicity against mesangial cells (unknown origin) expressing Hu-DDR1b assessed as reduction in cell viability at 10 uM incubated for 24 hrs by microscopic analysis. Format: cell-based.
Data set [8] in a line: Fraction unbound in rat plasma incubated for 4 hrs by LC/MS/MS analysis. It is filed as ADME, cell-free.
A short description of data set [9]: Oral bioavailability in Sprague-Dawley rat at 3 mg/kg measured upto 24 hrs by LC/MS/MS analysis. It is filed as ADME, organism-based. The settings on record: in vivo.
For data set [10], the target named is Epithelial discoidin domain-containing receptor 1 (Homo sapiens, UniProt Q08345). Briefly: Inhibition of FLAG-tagged DDR1 in human HEK293 cells assessed as reduction in collagen-1-induced DDR1 phosphorylation incubated for 18 hrs by ELISA.
Chain of Epithelial discoidin domain-containing receptor 1 (Q08345 whole entry, the tested form may be a part): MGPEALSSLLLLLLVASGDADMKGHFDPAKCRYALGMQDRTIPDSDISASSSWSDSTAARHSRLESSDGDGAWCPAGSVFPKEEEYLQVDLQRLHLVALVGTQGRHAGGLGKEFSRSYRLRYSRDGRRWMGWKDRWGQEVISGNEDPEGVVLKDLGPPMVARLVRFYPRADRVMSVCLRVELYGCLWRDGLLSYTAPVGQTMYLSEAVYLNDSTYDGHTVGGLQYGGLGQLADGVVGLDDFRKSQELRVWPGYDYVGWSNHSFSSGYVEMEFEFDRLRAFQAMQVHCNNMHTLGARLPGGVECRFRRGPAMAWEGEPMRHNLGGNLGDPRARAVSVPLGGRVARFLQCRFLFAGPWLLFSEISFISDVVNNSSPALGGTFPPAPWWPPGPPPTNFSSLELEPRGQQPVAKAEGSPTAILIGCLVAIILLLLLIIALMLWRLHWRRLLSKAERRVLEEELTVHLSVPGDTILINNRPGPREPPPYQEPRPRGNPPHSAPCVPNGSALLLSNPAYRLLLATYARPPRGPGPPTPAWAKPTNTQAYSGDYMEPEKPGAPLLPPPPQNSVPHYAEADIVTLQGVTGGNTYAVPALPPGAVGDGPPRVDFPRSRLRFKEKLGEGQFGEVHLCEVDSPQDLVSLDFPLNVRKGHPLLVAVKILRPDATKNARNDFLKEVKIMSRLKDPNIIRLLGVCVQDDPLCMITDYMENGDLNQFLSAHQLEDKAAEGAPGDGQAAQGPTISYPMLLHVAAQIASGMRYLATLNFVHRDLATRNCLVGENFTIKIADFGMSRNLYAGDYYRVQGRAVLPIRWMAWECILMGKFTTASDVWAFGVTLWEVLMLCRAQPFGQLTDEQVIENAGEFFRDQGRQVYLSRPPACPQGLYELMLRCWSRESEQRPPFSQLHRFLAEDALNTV
Data set [11] in a line: Cytotoxicity against mesangial cells (unknown origin) expressing Hu-DDR1b assessed as reduction in cell viability at 1 uM incubated for 24 hrs by microscopic analysis. Format: cell-based.

What is called IC50 is the concentration that gives 50% inhibition. As to `Cc1ccc(C(=O)Nc2cccc(C(F)(F)F)c2)cc1NCc1cncc(C(N)=O)c1`, the IC50 in data set [1] came out at 4.79 nM.

On to `Cc1ccc(C(=O)Nc2cccc(C(F)(F)F)c2)cc1NCc1cccnc1`, for which, in data set [1], the IC50 was 10.6 nM.

As to `COc1cncc(CNc2cc(C(=O)Nc3cccc(C(F)(F)F)c3)ccc2C)c1`, in data set [1], the IC50 was found to be 6.36 nM.

In the case of `Cc1ccc(C(=O)Nc2ccc(C)c(C(F)(F)F)c2)cc1NCc1cncc(-c2ccc[nH]2)c1`, the half-inhibitory concentration (IC50) in [1] came to 44.1 nM.

One may read the Tmax as the time from dosing to the highest level. The term half-life denotes how long it takes for the measured level to halve. Higher therefore signals slow loss. For orientation: fraction unbound means free concentration divided by total concentration. As a reminder, the bioavailability is the share of a dose that reaches the circulation, judged against a reference dose that is usually intravenous. A higher bioavailability goes with good availability. On to `Cn1ccc(-c2cncc(CNc3cc(C(=O)Nc4cccc(OC(F)(F)F)c4)ccc3F)c2)n1`, for which the Tmax in data set [2] turned out to be 0.75 h. Besides, the clearance in [3] came to 34.2 mL/min/kg. Also, the CLint scaled at 1 µM in data set [4] came out at 43.2 mL/min/kg. In data set [5], the Vd worked out at 4.3 L/kg. For the same molecule, the half-life in data set [6] is 3 h. Also, the Activity result in data set [7] was “Non-Toxic”. Moreover, the unbound share (fraction unbound) at 4 h in data set [8] came to 0.089. Moreover, the half-maximal inhibitory concentration (IC50) in [1] is 7.39 nM. In data set [9], this molecule yielded a bioavailability of 12.5%.

As for `Cc1ccc(C(=O)Nc2cccc(C(F)(F)F)c2)cc1NCc1cncc(-c2ccn(C)n2)c1`, the CLint scaled at 1 µM in [4] was determined as 46 mL/min/kg. Further, the unbound share (fraction unbound) at 4 h in data set [8] came out at 0.016. Moreover, the IC50 in data set [1] worked out at 4.56 nM.

As to `Cc1ccc(C(=O)Nc2cccc(C(F)(F)F)c2)cc1NCc1cncc(-c2ccc[nH]2)c1`, in data set [4], the CLint scaled at 1 µM came to 62 mL/min/kg. For the same molecule, the fraction unbound at 4 h in data set [8] stood at 0.001. Further, the IC50 in data set [1] turned out to be 11 nM.

For the molecule `Cc1ccc(C(=O)Nc2cccc(C(F)(F)F)c2)cc1Nc1cncc(C(N)=O)c1`, in [4], the CLint scaled at 1 µM is 60 mL/min/kg. In data set [10], the concentration for half-maximal inhibition (IC50) was 4.8 nM. In data set [8], this molecule displayed a fraction unbound at 4 h of 0.018. Further, the Activity result in data set [11] is on record as “Toxic”.
